Read-outs that look alike come from different tables or passages of the source.
Key:
Zymoseptoria tritici = assay: microbe, parasite or virus in culture; type: cell-based; settings: for inhibition at 0.05 ppm / inhibition at 0.1 ppm / inhibition at 0.5 ppm / inhibition at 1 ppm: Zymoseptoria tritici
Venturia inaequalis = assay: microbe, parasite or virus in culture; type: cell-based
Phytophthora infestans = assay: microbe, parasite or virus in culture; type: cell-based; settings: for inhibition at 0.05 ppm: read-out: Activity (%) 0.05 ppm; for inhibition at 0.1 ppm: read-out: Activity (%) 0.1 ppm; for inhibition at 0.5 ppm: read-out: Activity (%) 0.5 ppm; for inhibition at 1 ppm: read-out: Activity (%) 1 ppm; for inhibition at 5 ppm: read-out: Activity (%) 5 ppm; for inhibition at 10 ppm: read-out: Activity (%) 10 ppm; for inhibition at 50 ppm: read-out: Activity (%) 50 ppm
[1] = tested on: Plasmopara viticola strain PvS; assay: Grapevine downy mildew, preventive treatment of detached grapevine leaves / leaf discs; type: in vivo; settings: 2267 ppm, preventive 24 h, 7 dpi
[2] = tested on: Phytophthora infestans strain Pi96; type: in vivo; settings: for Disease Severity Index (%) 3 dpi / Disease Severity Index (%) 7 dpi / Disease Severity Index (%) 5 dpi / Disease Severity Index (%) 10 dpi: preventive 24 h
[3] = Water solubility as a function of pH; type: physicochemical; settings: increases at pH values below 7.0 and above 7.0

Compound | Activity (%) 0.1 ppm (Zymoseptoria tritici) | inhibition at 0.1 ppm (Venturia inaequalis) | inhibition at 0.5 ppm (Venturia inaequalis) | inhibition at 1 ppm (Venturia inaequalis) | inhibition at 0.05 ppm (Phytophthora infestans) | inhibition at 0.1 ppm (Phytophthora infestans) | inhibition at 0.5 ppm (Phytophthora infestans) | inhibition at 1 ppm (Phytophthora infestans) | inhibition at 5 ppm (Phytophthora infestans) | inhibition at 10 ppm (Phytophthora infestans) | inhibition at 50 ppm (Phytophthora infestans) | inhibition at 0.05 ppm (Zymoseptoria tritici; 0.05 ppm) | inhibition at 0.1 ppm (Zymoseptoria tritici) | inhibition at 0.5 ppm (Zymoseptoria tritici; 0.5 ppm) | inhibition at 1 ppm (Zymoseptoria tritici; 1 ppm) | further results
CCCCCCCCCCCCCCCCCC[S+](C)C.[I-] [1-5, octadecyl dimethyl sulfonium iodide] | 2.7% |  |  |  |  |  |  |  |  |  |  |  |  |  |  | Activity (%) 0.05 ppm (Zymoseptoria tritici; 0.05 ppm): 6.4%; Activity (%) 0.5 ppm (Zymoseptoria tritici; 0.5 ppm): 11.2%; Activity (%) 1 ppm (Zymoseptoria tritici; 1 ppm): 92.7%
N#Cc1c(Cl)c(Cl)c(Cl)c(C#N)c1Cl [Chlorothalonil] |  | 34.3% | 88.8% | 97.4% | -11.8% | -5.8% | -2% | 15.3% | 99.2% | 98.5% | 100% | 4.3% | 10% | 17.9% | 54.7% | 
CCCCCCCCCCCCNC(=N)N [Dodine] |  | 83.2% | 98.2% | 97.3% | 12.5% | 12% | 59.4% | 81.9% | 93.8% | 95.5% | 98.9% | 5.2% | 21.4% | 101% | 98.1% | control towards Downy Mildew [1]: full control
CCCCCCCCCCCCCCCCCC[S+](C)C.[Cl-] [ODS-Cl, octadecyl dimethyl sulfonium chloride] | 8.8% | 14.3% | 97.4% | 97.2% | 6.2% | 12.6% | 12.5% | 12.3% | 14.1% | 29.3% | 98.4% | 6.5% |  | 11.5% | 91% | Disease Severity Index (%) 3 dpi ([2]; 50 ppm): 8.7%; Disease Severity Index (%) 7 dpi ([2]; 50 ppm): 40.0%; Disease Severity Index (%) 3 dpi ([2]; 100 ppm): 5.5%; Disease Severity Index (%) 3 dpi ([2]; 500 ppm): 0.0%; Disease Severity Index (%) 5 dpi ([2]; 500 ppm): 0.0%; Disease Severity Index (%) 7 dpi ([2]; 500 ppm): 0.0%; Disease Severity Index (%) 10 dpi ([2]; 500 ppm): 0.0%; control of the disease (late blight) ([2]; 1000 ppm): full control; Disease Severity Index (%) 3 dpi ([2]; 1000 ppm): 0.0%; Disease Severity Index (%) 5 dpi ([2]; 1000 ppm): 0.0%; Disease Severity Index (%) 7 dpi ([2]; 1000 ppm): 0.0%; Disease Severity Index (%) 10 dpi ([2]; 1000 ppm): 0.0%
CCCCCCCCCCCCCCCCCC[S+](C)C.[Cl-] [octadecyl dimethyl sulfonium chloride] |  |  |  |  |  |  |  |  |  |  |  |  |  |  |  | water solubility, pH dependency [3]: minimum around pH 7.0
